{"source": "paper PMC11220827", "about": "(Frontiers in Pharmacology, 2024)", "key": {"HepG2 cells": {"test_system": "HepG2 cells", "test": "cells", "type": "cell-based"}, "H295R cells [1]": {"test_system": "H295R cells", "conditions": "reference: Forskolin (↑), prochloraz (↓)", "procedure": "(§1) DMSO (1% compound stock in incubation mixture).\nwas measured on a Berthold luminometer.\n(§2) Serial dilutions of the compounds were incubated in Tris -buffer (pH 8.0) overnight at 4°C in the\n(§3) incubation mixture). After incubation, TTR-bound and free T4 were separated on a Bio-Gel P-6DG\n(§4) column. The eluate was added to assay medium after which TRβ CALUX cells were exposed for 24 h\n(§5) For this TRβ CALUX exposure, serum-free assay medium was used.\n(§6) wells plates in assay medium, and exposed for 48h to a serial dilution of the compound in triplicate\n(§7) exposure, the assay medium was analysed on the ERα and AR CALUX bioassays as described\n(§8) Changes in hormone levels compared to a vehicle control exposure\n(§9) Preincubation with rat liver S9 fraction\n(§10) To assess the effect of metabolism on the activity of the test\n(§11) compound for these assays, preincubations with rat liver S9 were performed. Compounds (10 μl\n(§12) DMSO stock solution) were incubated for 0 h (control) or 3 h (test condition) in a total volume of 1\n(§13) ml TRIS buffer in the presence of 1% (v/v) PB/BNF induced rat liver S9 mix (including NADPH and\n(§14) an NADPH-regenerating system). After incubation, the reaction was stopped by the addition of ice\n(§15) cold acetone, and samples were frozen to stimulate protein precipitation. After thawing, the\n(§16) precipitated protein fraction was subsequently removed by centrifugation. The supernatant, cont aining\n(§17) the metabolites and any remaining non-metabolised parent compound, was concentrated under a\n(§18) gentle nitrogen flow. After evaporating to dryness, the sample was taken up in 50 μl DMSO followed\n(§19) by the addition of 50 μl TRIS buffer. This extract was used for the exposure of the hTPO inhibition,\n(§20) Relative light units (RLUs) of the CALUX assays were analysed as follows. For agonist assays,\n(§21) background values (exposure to DMSO only) were subtracted, and the maximum activity of the\n(§22) assay’s reference compound was set to 100%. For antagonist assays, the basal signal (exposure to fixed concentration of agonist only) was set to 100%. Activity of the samples was scaled accordingly,\n(§23) resulting in expression of the data as “percentage of maximum reference response”. Graphs were\n(§24) generated using the statistical software package GraphPad Prism V5.03. Using these graphs, lowest\n(§25) effect concentrations (LOECs) and PC50 concentrations were determined; LOEC is defined as the\n(§26) maximum reference compound activity for agonist assays, and 20% of the maximum reference\n(§27) compound activity for antagonist assays. The PC50 is defined as the concentration where the activity\n(§28) of the sample equals 50% of the maximum activity of the assay’s reference compound.\n(§29) the test compound was divided by the amount of estrogens and androgens produced by the solvent\n(§30) control-exposed cells. A sample was considered ‘active’ if it decreased the hormone production 0.8-"}, "H295R cells [2]": {"test_system": "H295R cells", "conditions": "reference: Forskolin (↑), prochloraz (↓)", "remark": "listed apart in the source", "procedure": "as §1\nwas measured on a Berthold luminometer.\nas §2, §3, §4, §5, §6, §7, §8, §9, §10, §11, §12, §13, §14, §15, §16, §17, §18, §19, §20, §21, §22, §23, §24, §25, §26, §27, §28, §29, §30"}, "[3]": {"conditions": "HepG2, 24 h, NR = No response observed"}}, "note": "Like-named read-outs stand apart in the source and are kept apart here."}
{"compound": "CC[C@@]1(O)C(=O)OCc2c1cc1n(c2=O)Cc2cc3ccccc3nc2-1", "note": "[(S)-(+)-camptothecin, reference compound]", "values": [{"measurement": "DNA damage: Phospho-p53: MEC", "setting": "HepG2 cells; HepG2, 24 h", "result": 0.412, "unit": "µM"}, {"measurement": "DNA damage: p-H2AX: MEC", "setting": "HepG2 cells; HepG2, 24 h", "result": 1.06, "unit": "µM"}, {"measurement": "DNA damage: Phospho-p53: Effect", "setting": "HepG2 cells; [3]", "result": "increase"}, {"measurement": "DNA damage: p-H2AX: Effect", "setting": "HepG2 cells; [3]", "result": "increase"}, {"measurement": "AC50", "setting": "HepG2 cells; HepG2, 24 h, read-out: DNA damage: Phospho-p53: AC50", "result": 1.25, "unit": "µM"}, {"measurement": "AC50", "setting": "HepG2 cells; HepG2, 24 h, read-out: DNA damage: p-H2AX: AC50", "result": 9.1, "unit": "µM"}]}
{"compound": "CCCCCC[C@H]1C(=O)O[C@H](C)[C@H](NC(=O)c2cccc(NC=O)c2O)C(=O)O[C@@H](C)[C@@H]1OC(=O)CC(C)C", "note": "[Antimycin A, reference compound]", "values": [{"measurement": "Mitochondrial mass: Effect", "setting": "HepG2 cells; [3]", "result": "increase"}, {"measurement": "AC50", "setting": "HepG2 cells; Homo sapiens, HepG2, 24 h, read-out: Mitochondrial mass: AC50", "result": 0.245, "unit": "µM"}]}
{"compound": "c1ccc2c(c1)cc1ccc3cccc4ccc2c1c34", "note": "[Benzo(a)pyrene, reference compound]", "values": [{"measurement": "AC50", "setting": "HepG2 cells; Homo sapiens, HepG2, 24 h, read-out: AhR Translocation: AC50", "result": "> 100", "unit": "µM"}, {"measurement": "AhR Translocation: MEC", "setting": "HepG2 cells; human, 24 h", "result": 0.389, "unit": "µM"}]}
{"compound": "[Cd+2].[Cl-].[Cl-]", "note": "[Cadmium (II) chloride, reference compound]", "values": [{"measurement": "Metal stress: MTF1: MEC", "setting": "HepG2 cells; HepG2, 24 h", "result": 0.0751, "unit": "µM"}, {"measurement": "Metal stress: metallothionein: MEC", "setting": "HepG2 cells; HepG2, 24 h", "result": 0.0751, "unit": "µM"}, {"measurement": "Metal stress: MTF1: Effect", "setting": "HepG2 cells; [3]", "result": "increase"}, {"measurement": "Metal stress: metallothionein: Effect", "setting": "HepG2 cells; [3]", "result": "increase"}, {"measurement": "AC50", "setting": "HepG2 cells; HepG2, 24 h, read-out: Metal stress: MTF1: AC50", "result": 7.05, "unit": "µM"}, {"measurement": "AC50", "setting": "HepG2 cells; HepG2, 24 h, read-out: Metal stress: metallothionein: AC50", "result": 7.05, "unit": "µM"}]}
{"compound": "CC(=O)N(O)CCCCCNC(=O)CCC(=O)N(O)CCCCCNC(=O)CCC(=O)N(O)CCCCCN.CS(=O)(=O)O", "note": "[Deferoxamine mesylate salt, reference compound]", "values": [{"measurement": "Inflammation & pH: HIF1α: Effect", "setting": "HepG2 cells", "result": "increase"}, {"measurement": "Inflammation & pH: HIF1α: MEC", "setting": "HepG2 cells", "result": 6.2, "unit": "µM"}, {"measurement": "Inflammation & pH: ICAM-1: Effect", "setting": "HepG2 cells", "result": "increase"}, {"measurement": "Inflammation & pH: ICAM-1: MEC", "setting": "HepG2 cells", "result": 17.4, "unit": "µM"}, {"measurement": "Inflammation & pH: intracellular pH: Effect", "setting": "HepG2 cells", "result": "increase"}, {"measurement": "Inflammation & pH: intracellular pH: MEC", "setting": "HepG2 cells", "result": 6.46, "unit": "µM"}, {"measurement": "AC50", "setting": "HepG2 cells; HepG2, 24 h, read-out: Inflammation & pH: HIF1α: AC50", "result": 4.31, "unit": "µM"}, {"measurement": "AC50", "setting": "HepG2 cells; HepG2, 24 h, read-out: Inflammation & pH: ICAM-1: AC50", "result": "> 200", "unit": "µM"}, {"measurement": "AC50", "setting": "HepG2 cells; HepG2, 24 h, read-out: Inflammation & pH: intracellular pH: AC50", "result": "> 200", "unit": "µM"}]}
{"compound": "C=C(CC)C(=O)c1ccc(OCC(=O)O)c(Cl)c1Cl", "note": "[Ethacrynic acid, reference compound]", "values": [{"measurement": "AC50", "setting": "HepG2 cells; Homo sapiens, HepG2, 24 h, read-out: Oxidative stress: HMOX1: AC50", "result": 19.2, "unit": "µM"}, {"measurement": "AC50", "setting": "HepG2 cells; Homo sapiens, HepG2, 24 h, read-out: Oxidative stress: NRF2: AC50", "result": 28, "unit": "µM"}, {"measurement": "AC50", "setting": "HepG2 cells; Homo sapiens, HepG2, 24 h, read-out: Oxidative stress: SRXN1: AC50", "result": 19, "unit": "µM"}, {"measurement": "Oxidative stress: HMOX1: MEC", "setting": "HepG2 cells; human, 24 h", "result": 0.824, "unit": "µM"}, {"measurement": "Oxidative stress: NRF2: MEC", "setting": "HepG2 cells; human, 24 h", "result": 3.52, "unit": "µM"}, {"measurement": "Oxidative stress: SRXN1: MEC", "setting": "HepG2 cells; human, 24 h", "result": 6.17, "unit": "µM"}]}
{"compound": "C=C[C@@]1(C)CC(=O)[C@]2(O)[C@@]3(C)[C@@H](O)CCC(C)(C)[C@@H]3[C@H](O)[C@H](OC(C)=O)[C@@]2(C)O1", "note": "[Forskolin, reference compound]", "values": [{"measurement": "Steroidogenesis (AR) Testosterone LOEC, reference compound", "setting": "H295R cells [1]", "result": "−6.0", "unit": "Log M"}, {"measurement": "Steroidogenesis (ERα) 17β-estradiol LOEC, reference compound", "setting": "H295R cells [2]", "result": "−6.0", "unit": "Log M"}]}
{"compound": "C[C@H](CCC(=O)O)C[C@H](C)C[C@H](C)C(=O)/C=C(\\O)[C@H](C)C[C@H](C)C/C=C/[C@@H](C)[C@@H](O)[C@@H](C)[C@@H](O)C[C@@H]1CC[C@@](C)([C@H]2CC[C@@](C)([C@@H](C)O)O2)O1", "note": "[Ionomycin, reference compound]", "values": [{"measurement": "Apoptosis & necrosis: caspase 3/7: MEC", "setting": "HepG2 cells; HepG2, 24 h", "result": 0.0225, "unit": "µM"}, {"measurement": "Apoptosis & necrosis: cell cycle arrest: MEC", "setting": "HepG2 cells; HepG2, 24 h", "result": 0.0283, "unit": "µM"}, {"measurement": "Inflammation & pH: IL-8: MEC", "setting": "HepG2 cells; HepG2, 24 h", "result": 0.496, "unit": "µM"}, {"measurement": "Apoptosis & necrosis: caspase 3/7: Effect", "setting": "HepG2 cells; [3]", "result": "increase"}, {"measurement": "Apoptosis & necrosis: cell cycle arrest: Effect", "setting": "HepG2 cells; [3]", "result": "decrease"}, {"measurement": "Inflammation & pH: IL-8: Effect", "setting": "HepG2 cells; [3]", "result": "increase"}, {"measurement": "AC50", "setting": "HepG2 cells; Homo sapiens, HepG2, 24 h, read-out: Apoptosis & necrosis: caspase 3/7: AC50", "result": 0.798, "unit": "µM"}, {"measurement": "AC50", "setting": "HepG2 cells; Homo sapiens, HepG2, 24 h, read-out: Apoptosis & necrosis: cell cycle arrest: AC50", "result": 0.056, "unit": "µM"}, {"measurement": "AC50", "setting": "HepG2 cells; Homo sapiens, HepG2, 24 h, read-out: Apoptosis & necrosis: cell membrane permeability: AC50", "result": 30.8, "unit": "µM"}, {"measurement": "AC50", "setting": "HepG2 cells; Homo sapiens, HepG2, 24 h, read-out: Inflammation & pH: IL-8: AC50", "result": "> 10", "unit": "µM"}]}
{"compound": "CCCCS(=N)(=O)CCC(N)C(=O)O", "note": "[L-BSO, reference compound]", "values": [{"measurement": "GSH content: Effect", "setting": "HepG2 cells", "result": "decrease"}, {"measurement": "GSH content: MEC", "setting": "HepG2 cells", "result": 0.725, "unit": "µM"}, {"measurement": "AC50", "setting": "HepG2 cells; HepG2, 24 h, read-out: GSH content: AC50", "result": 37.5, "unit": "µM"}]}
